Laboratory results: US12447170B2, “Use of maribavir in treatment regimens” (priority 2021, dated 2025)
“Also recorded” adds a separate entry of the source.

Key:
[1] = PBPK model simulation of maribavir alone; design: species or system human
Procedure: A Physiologically-based Pharmacokinetic (“PBPK”) model based on prior in vitro and in vivo information on the metabolism and kinetics of maribavir was constructed with the aim of predicting plasma concentration-time profiles of maribavir and to evaluate the likely impact of coadministration of CYP3A4 inhibitors and inducers on the kinetics of maribavir in healthy subjects.
A combination of in vitro data and clinical pharmacokinetic data obtained following a single dose of 400 mg maribavir were used to develop the PBPK model. […] The Cmax was marginally under predicted, which could be expected because the PBPK model was optimized for better prediction of C12h.
Distribution models evaluated included a full PBPK model and a minimal PBPK model, both of which consider liver and intestinal metabolism. Mass balance data from the [^14C] ADME study indicated a fraction absorbed of 0.83 or greater following oral administration of 400 mg dose of maribavir. Absorption models evaluated included a simple first-order absorption model and a more mechanistic “Advanced Dissolution Absorption and Metabolism” (ADAM) model.
A comparison of observed and predicted plasma concentrations of maribavir following single oral doses of 800 mg and 1600 mg to healthy patients […]. […] The simulated and observed maribavir concentrations were in reasonable agreement.
A comparison of observed and predicted plasma concentrations of maribavir following multiple oral 400 mg BID doses of maribavir was performed. […] The simulated and observed maribavir concentrations were in reasonable agreement.

[2] = test system: CYP2B6 mRNA; assay type: in vitro ADME; settings: human, hepatocytes, 72 h
Procedure: (§1) Fresh human hepatocytes were treated with culture medium with maribavir concentrations of 36 μM, 144 μM, and 480 μM. […] Incubation was conducted at 37° C. for 72 hours, with daily replacement of medium with compound. […] Analysis of CYP expression was performed using qPCR with CYP-specific probes.

[3] = test system: CYP1A2 mRNA; assay type: in vitro ADME; settings: human, hepatocytes, 72 h
Procedure: as §1

[4] = molecular target: T1, CYP1A2 (Homo sapiens, UniProt P05177); assay: Time-dependent CYP inhibition (IC50 shift, 30 minute pre-incubation with HLM +/- NADPH); assay type: in vitro ADME; design: from tissue; settings: up to 100 μM
T1 sequence (P05177 1-516): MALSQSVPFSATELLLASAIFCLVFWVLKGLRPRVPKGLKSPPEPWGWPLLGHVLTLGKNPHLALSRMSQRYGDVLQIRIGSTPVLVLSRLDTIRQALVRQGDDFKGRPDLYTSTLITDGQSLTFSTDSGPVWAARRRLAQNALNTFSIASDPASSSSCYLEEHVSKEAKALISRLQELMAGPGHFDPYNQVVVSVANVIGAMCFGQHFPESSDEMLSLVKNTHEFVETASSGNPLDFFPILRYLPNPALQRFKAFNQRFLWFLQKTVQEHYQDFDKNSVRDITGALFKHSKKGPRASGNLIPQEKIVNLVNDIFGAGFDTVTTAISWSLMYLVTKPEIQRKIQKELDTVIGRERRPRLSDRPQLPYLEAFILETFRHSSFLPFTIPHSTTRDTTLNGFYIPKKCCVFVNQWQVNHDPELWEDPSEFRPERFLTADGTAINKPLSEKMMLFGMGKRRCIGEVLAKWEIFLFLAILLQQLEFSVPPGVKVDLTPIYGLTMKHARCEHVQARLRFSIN
Procedure: (§2) Time-dependent inhibition (TDI) potentials for various CYP enzymes were evaluated by a 30 minute pre-incubation of maribavir with HLM in the presence and absence of nicotinamide-adenine dinucleotide […] (NADPH) followed by a CYP enzyme activity assay.

[5] = molecular target: CYP2C9 (Homo sapiens, UniProt P11712); assay: as above; assay type: in vitro ADME; design: from tissue; settings: up to 100 μM
Chain of CYP2C9 (P11712 whole entry): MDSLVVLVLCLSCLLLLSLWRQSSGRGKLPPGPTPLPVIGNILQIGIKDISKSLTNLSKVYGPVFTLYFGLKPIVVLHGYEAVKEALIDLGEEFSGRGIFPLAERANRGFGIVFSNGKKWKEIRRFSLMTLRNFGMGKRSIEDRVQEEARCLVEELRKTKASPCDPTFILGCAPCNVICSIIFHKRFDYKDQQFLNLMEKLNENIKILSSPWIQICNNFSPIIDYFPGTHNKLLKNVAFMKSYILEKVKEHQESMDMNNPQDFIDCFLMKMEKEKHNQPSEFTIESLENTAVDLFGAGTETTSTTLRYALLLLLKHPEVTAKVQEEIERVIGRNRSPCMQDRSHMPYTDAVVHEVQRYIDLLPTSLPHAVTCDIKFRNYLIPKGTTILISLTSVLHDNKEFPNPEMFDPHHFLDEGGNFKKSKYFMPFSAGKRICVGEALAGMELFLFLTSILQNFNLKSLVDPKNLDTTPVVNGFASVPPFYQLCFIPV
Procedure: as §2

[6] = molecular target: T2, CYP2C8 (Homo sapiens, UniProt P10632); assay: as above; assay type: in vitro ADME; design: from tissue; settings: up to 100 μM
T2 sequence (P10632 1-490): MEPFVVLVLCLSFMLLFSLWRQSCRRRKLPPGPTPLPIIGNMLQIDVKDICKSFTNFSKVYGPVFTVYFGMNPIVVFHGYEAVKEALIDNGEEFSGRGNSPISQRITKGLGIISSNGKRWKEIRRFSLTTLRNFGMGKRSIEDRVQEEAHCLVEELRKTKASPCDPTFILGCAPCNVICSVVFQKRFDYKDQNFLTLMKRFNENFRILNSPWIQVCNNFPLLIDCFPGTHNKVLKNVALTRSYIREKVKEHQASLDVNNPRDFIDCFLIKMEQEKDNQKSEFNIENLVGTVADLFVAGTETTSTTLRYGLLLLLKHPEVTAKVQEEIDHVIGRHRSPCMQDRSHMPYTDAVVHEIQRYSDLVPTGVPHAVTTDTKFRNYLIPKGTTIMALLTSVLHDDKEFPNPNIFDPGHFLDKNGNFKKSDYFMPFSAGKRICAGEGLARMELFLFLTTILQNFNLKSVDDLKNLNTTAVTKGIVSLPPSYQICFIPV
Procedure: as §2

[7] = molecular target: CYP2D6 (Homo sapiens, UniProt P10635); assay: as above; assay type: in vitro ADME; design: from tissue; settings: up to 100 μM
Chain of CYP2D6 (P10635 whole entry): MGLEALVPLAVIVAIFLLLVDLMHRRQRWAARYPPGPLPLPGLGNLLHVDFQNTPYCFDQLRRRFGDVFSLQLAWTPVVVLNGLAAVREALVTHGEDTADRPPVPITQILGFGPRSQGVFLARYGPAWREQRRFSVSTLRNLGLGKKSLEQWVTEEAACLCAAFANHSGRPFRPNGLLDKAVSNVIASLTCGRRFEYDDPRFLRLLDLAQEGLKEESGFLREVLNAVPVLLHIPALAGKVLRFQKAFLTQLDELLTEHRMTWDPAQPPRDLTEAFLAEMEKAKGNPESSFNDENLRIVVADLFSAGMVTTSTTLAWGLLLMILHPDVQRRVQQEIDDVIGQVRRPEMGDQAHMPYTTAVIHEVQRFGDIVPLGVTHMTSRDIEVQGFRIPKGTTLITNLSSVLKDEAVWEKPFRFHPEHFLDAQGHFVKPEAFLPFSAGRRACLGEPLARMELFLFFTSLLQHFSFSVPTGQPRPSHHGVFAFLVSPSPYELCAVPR
Procedure: as §2

[8] = molecular target: CYP2C19 (Homo sapiens, UniProt P33261); assay: as above; assay type: in vitro ADME; design: from tissue; settings: up to 100 μM
Chain of CYP2C19 (P33261 whole entry): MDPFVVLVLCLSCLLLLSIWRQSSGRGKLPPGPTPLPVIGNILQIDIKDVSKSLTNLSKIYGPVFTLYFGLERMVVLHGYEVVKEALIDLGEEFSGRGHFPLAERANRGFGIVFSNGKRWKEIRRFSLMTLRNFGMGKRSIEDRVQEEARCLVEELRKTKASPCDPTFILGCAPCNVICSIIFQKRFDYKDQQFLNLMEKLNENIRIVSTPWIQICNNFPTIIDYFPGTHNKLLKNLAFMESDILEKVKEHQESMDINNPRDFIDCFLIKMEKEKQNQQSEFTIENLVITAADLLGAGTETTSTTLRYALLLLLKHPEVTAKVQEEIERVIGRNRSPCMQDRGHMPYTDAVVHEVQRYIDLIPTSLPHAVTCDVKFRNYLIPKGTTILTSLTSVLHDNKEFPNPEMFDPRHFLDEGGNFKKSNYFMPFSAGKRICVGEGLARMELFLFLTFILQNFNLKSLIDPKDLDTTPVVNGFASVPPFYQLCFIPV
Procedure: as §2

[9] = Observed clinical interaction of maribavir with rifampicin; assay type: in vivo, human; settings: maribavir 400 mg BID with/without rifampicin 600 mg QD
Procedure: A comparison of observed and predicted plasma concentrations of maribavir following multiple oral doses of 400 mg administered in the absence of rifampicin and during concurrent treatment with rifampicin was performed. Subjects took maribavir 400 mg BID on Days 1-3 (5 doses), then rifampicin 600 mg QD on Days 4 through 12, followed by both maribavir 400 mg (BID) and rifampicin 600 mg QD on Days 13 and 14, with final doses of maribavir and rifampicin on the morning of Day 15.

[10] = maribavir 400 mg BID alone (Table 7A)
[11] = maribavir 400 mg BID, 5 doses (Table 5A)
[12] = maribavir 400 mg single dose alone (Table 6A)
[13] = maribavir 400 mg single oral dose
[14] = maribavir 800 mg single oral dose
[15] = maribavir 1600 mg single oral dose

CC(C)Nc1nc2cc(Cl)c(Cl)cc2n1[C@H]1O[C@@H](CO)[C@H](O)[C@@H]1O [maribavir, (2S,3S,4R,5S)-2-(5,6-dichloro-2-(isopropylamino)-1H-benzo[d]imidazol-1-yl)-5-(hydroxymethyl)tetrahydrofuran-3,4-diol]
AUC(0-12 h), RATIO GEOMETRIC MEAN PREDICTED/OBSERVED [1, 10]: 1.03
AUC(0-12 h), RATIO MEAN PREDICTED/OBSERVED [1, 10]: 1.06
C12 h, RATIO GEOMETRIC MEAN PREDICTED/OBSERVED [1, 10]: 0.92
C12 h, RATIO MEAN PREDICTED/OBSERVED [1, 10]: 1.14
Cmax, RATIO GEOMETRIC MEAN PREDICTED/OBSERVED [1, 10]: 0.85
Cmax, RATIO MEAN PREDICTED/OBSERVED [1, 10]: 0.84
AUC(0-∞), RATIO MEAN PREDICTED/OBSERVED [1, 11]: 1.07
C12 h, RATIO MEAN PREDICTED/OBSERVED [1, 11]: 1.18
Cmax, RATIO MEAN PREDICTED/OBSERVED [1, 11]: 0.85
AUC(0-∞), GEOMEAN RATIO PREDICTED/OBSERVED [1, 12]: 0.78
AUC(0-∞), MEAN RATIO PREDICTED/OBSERVED [1, 12]: 0.79
Cmax, GEOMEAN RATIO PREDICTED/OBSERVED [1, 12]: 0.61
Cmax, MEAN RATIO PREDICTED/OBSERVED [1, 12]: 0.62
AUC(0-∞), RATIO MEAN PREDICTED/OBSERVED [1, 13]: 1.00
Cmax, RATIO MEAN PREDICTED/OBSERVED [1, 13]: 0.72
AUC(0-∞), RATIO MEAN PREDICTED/OBSERVED [1, 14]: 1.07
Cmax, RATIO MEAN PREDICTED/OBSERVED [1, 14]: 0.91
AUC(0-∞), RATIO MEAN PREDICTED/OBSERVED [1, 15]: 0.90
Cmax, RATIO MEAN PREDICTED/OBSERVED [1, 15]: 0.99
CYP2B6 mRNA induction, % of the levels of positive controls [2]: ≤ 11%
CYP1A2 mRNA induction, % of the levels of positive controls [3]: ≤ 11%
time-dependent inhibition (TDI) of CYP1A2 [4]: not a time-dependent inhibitor; also recorded: unlikely a TDI
time-dependent inhibition (TDI) of CYP2C9 [5]: not a time-dependent inhibitor; also recorded: unlikely a TDI
time-dependent inhibition (TDI) of CYP2C8 [6]: not a time-dependent inhibitor; also recorded: unlikely a TDI
time-dependent inhibition (TDI) of CYP2D6 [7]: not a time-dependent inhibitor; also recorded: unlikely a TDI
time-dependent inhibition (TDI) of CYP2C19 [8]: not a time-dependent inhibitor; also recorded: unlikely a TDI
Ratio AUC(0-12 h), observed Mean [9]: 0.41
Ratio C12 h, observed Mean [9]: 0.17
Ratio Cmax, observed Mean [9]: 0.65
